Like-named read-outs stand apart in the source and are kept apart here.
Experiments:
[1] = tested on: NO production in LPS-stimulated BV2 cells; assay: Inhibition of NO production in LPS-stimulated BV2 cells (Griess reaction); type: cell-based; conditions: read-out: Inhibitory effects on NO in LPS-induced BV-2, IC50
Description: BV2 microglial cells were cultured in DMEM containing 10% fetal bovine serum, 100 IU/mL penicillin, and 100 μg/mL streptomycin at 37 ℃ with 5% CO2. Then, the cells were placed in 96-well microplates and treated with different compounds at 1–8 concentrations (5, 10, 30, 50, 100, 200 μM) for 1 h. Next, the cells were treated with 1 μg/mL LPS for 24 h to detect the NO (nitric oxide) levels in culture supernatants. After the Griess reaction (incubated at 37 ℃ with 5% CO2 for 0.5 h), the absorbance of cells was measured with a microplate reader (BioTek Company, Winooski, VT, USA) at […], repeated three times, and its IC50 value was calculated.

[2] = Cytotoxicity on BV2 cells, CCK8 method; type: cell-based; conditions: mouse, BV2 microglial cells, CCK8, 24 h treatment, 5-200 μM, read-out: Cytotoxic activities IC50
Description: The cytotoxicity assay was performed with a modified CCK8 method. First, BV2 microglial cells were cultured with 96-well microplates (10^4 cells/well in […] medium) for 24 h. Then, the cells were treated with different concentrations (5, 10, 30, 50, 100, 200 μM) of compounds. After the cells were incubated for 24 h, added 10 μL CCK8 solution to each well and incubated for 2 h in a 5% CO2 humidifier at 37 ℃. The absorbance was recorded at 450 nm with a microplate reader (BioTek Company, Winooski, VT, USA), repeating three times, and its IC50 value was calculated.

[3] = Mus musculus, BV-2, compound 1 h then 1 μg/mL LPS 24 h

Row | IC50 [1, 3] | IC50 ([1]; compound 1 h then 1 μg/mL LPS 24 h) | Compound | IC50 at 24 h [2]
1 | 24.3 ± 1.82 µM | – | CCC(C)C(=O)O[C@@H]1[C@H](OC(C)=O)[C@@H](OC(=O)C(C)CC)[C@H](O)[C@@H](O)[C@@H]1OC(=O)C(C)C (relative stereo) [Compound 1, myoinositol-1,3-(2-methylbutyrate)-2-acetate-4-isobutyryloxy] | > 100 µM
2 | > 100 µM | – | CCC(C)C(=O)O[C@H]1[C@@H](OC(=O)C(C)CC)[C@H](OC(C)=O)[C@@H](O)[C@H](OC(=O)C(C)CC)[C@H]1OC(C)=O (relative stereo) [Compound 3, myoinositol-1,4-acetate-2,3,5-(2-methylbutyrate)] | > 100 µM
3 | > 100 µM | – | CCC(C)C(=O)O[C@H]1[C@@H](OC(=O)C(C)CC)[C@H](OC(=O)C(C)CC)[C@@H](O)[C@H](OC(=O)C(C)C)[C@H]1OC(C)=O (relative stereo) [Compound 4, myoinositol-1,2,3-(2-methylbutyrate)-4-acetate-5-isobutyryloxy] | > 100 µM

Continued, molecule first:

Row | Compound | IC50 [1, 3] | IC50 ([1]; compound 1 h then 1 μg/mL LPS 24 h) | IC50 at 24 h [2]
4 | CCC(C)C(=O)O[C@@H]1[C@H](OC(=O)C(C)C)[C@@H](OC(=O)C(C)C)[C@H](O)[C@@H](O)[C@@H]1OC(C)=O (relative stereo) [Compound 2, myoinositol-1,2-isobutyryloxy-3-(2-methylbutyrate)-4-acetate] | 31.7 ± 2.71 µM | – | > 100 µM
5 | CCC(C)C(=O)O[C@@H]1[C@@H](O)[C@H](O)[C@H](OC(=O)C(C)CC)[C@H](OC(=O)C(C)CC)[C@H]1O (relative stereo) [Compound 5, myoinositol-2,3,6-(2-methylbutyrate)] | 11.2 ± 0.14 µM | – | > 100 µM
6 | CCC(C)C(=O)O[C@@H]1[C@H](OC(=O)C(C)CC)[C@@H](O)[C@H](O)[C@@H](O)[C@@H]1OC(C)=O (relative stereo) [Compound 6, myoinositol-2,3-(2-methylbutyrate)-4-acetate] | 23.3 ± 0.74 µM | – | > 100 µM
7 | CCC(C)C(=O)O[C@@H]1[C@H](O)[C@@H](O)[C@H](O)[C@@H](OC(=O)C(C)CC)[C@@H]1OC(C)=O (relative stereo) [Compound 7, myoinositol-1,3-(2-methylbutyrate)-2-acetate] | 14.5 ± 1.22 µM | – | > 100 µM
8 | CCC(C)C(=O)O[C@@H]1[C@@H](OC(=O)C(C)CC)[C@H](O)[C@@H](O)[C@H](O)[C@@H]1OC(=O)C(C)CC (relative stereo) [Compound 8, myoinositol-2,3,6-(2-methylbutyrate)] | 31 ± 0.92 µM | – | > 100 µM
9 | CNC(=N)NCCC[C@H](N)C(=O)O [NMMA, reference compound] | – | 1.67 ± 0.24 µM | –

— article PMC9503535, “Inositol Derivatives with Anti-Inflammatory Activity from Leaves of Solanum capsicoides Allioni” (Molecules, 2022)
